Experimental data reported in patent US8937091B2 (Japan Science and Technology Agency, priority 2009, dated 2015).

How the values were obtained:
[1] = test system: SOCE (store operated calcium entry) in CHO cells; test: Assay of SOCE (store operated calcium entry)-inhibiting action; type: cell-based, Chinese hamster; details: CHO cells, thapsigargin; for inhibition at 10 µM / inhibition at 30 µM / inhibition at 100 µM: Cricetulus griseus, CHO, read-out: SOCE level (percentage of inhibition)
How it was run: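 CHO cells in calcium-free BSS received compound, then 1 μM thapsigargin 2 min later to deplete stores; after 9 min, 2 mM calcium chloride (final) added. Percent inhibition of the rise in intracellular calcium determined at various compound concentrations.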

[2] = test system: IICR (IP3 induced calcium release) in CHO cells; test: Assay of IICR (IP3 induced calcium release)-inhibiting action; type: cell-based, Chinese hamster; details: CHO cells, 10 μM ATP; for inhibition at 10 µM / inhibition at 30 µM / inhibition at 100 µM: Cricetulus griseus, CHO, read-out: IICR level (percentage of inhibition)
How it was run: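 CHO cell medium replaced with calcium-containing BSS; compound added 1 min later, then 10 μM ATP after a further 2 min. Percent inhibition of the ATP-evoked rise in intracellular calcium determined at each compound concentration.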

| Compound | inhibition at 10 µM ([1]; test compound 10 μmol) | inhibition at 30 µM ([1]; test compound 30 μmol) | inhibition at 100 µM ([1]; test compound 100 μmol) | inhibition at 10 µM ([2]; test compound 10 μmol) | inhibition at 30 µM ([2]; test compound 30 μmol) | inhibition at 100 µM ([2]; test compound 100 μmol) | SOCE level (percentage of inhibition) ([1]; test compound 10 μmol) | SOCE level (percentage of inhibition) ([1]; test compound 30 μmol) | SOCE level (percentage of inhibition) ([1]; test compound 100 μmol) | IICR level (percentage of inhibition) ([2]; test compound 10 μmol) | IICR level (percentage of inhibition) ([2]; test compound 30 μmol) | IICR level (percentage of inhibition) ([2]; test compound 100 μmol) |
| --- | --- | --- | --- | --- | --- | --- | --- | --- | --- | --- | --- | --- |
| CCCCN(CCO)CCC(=O)c1ccccn1 [Example 250] | 0% | 0% | 0% | 0% | 10% | 20% | – | – | – | – | – | – |
| CN(CCO)CCC(=O)c1ccccn1 [Example 251, 2-(N-methyl-2-hydroxyethyl)aminoethyl-2-pyridylketone] | 0% | 0% | 0% | 0% | 0% | 0% | – | – | – | – | – | – |
| CCc1nccnc1C(=O)CCN(CCO)C(C)C [Example 252, 2-(N-isopropyl-2-hydroxyethyl)aminoethyl-3-ethyl-2-pyrazylketone] | – | – | – | – | – | – | 0% | 0% | 0% | 0% | 0% | 80% |
| CCN(CCC(=O)c1cccs1)Cc1ccccc1 [Example 253, 2-(N-benzylethyl)aminoethyl-2-thiophenylketone] | 0% | 10% | 40% | 20% | 0% | 20% | – | – | – | – | – | – |
| CN(CCO)CCC(=O)c1ccsc1 [Example 254, 2-(N-2-hydroxyethylmethyl)aminoethyl-3-thiophenylketone] | 0% | 0% | 0% | 0% | 30% | 40% | – | – | – | – | – | – |
| CCCCN(CCO)CCC(=O)c1ccc(C)o1 [Example 255, 2-(N-2-hydroxyethylbutyl)aminoethyl-5-methyl-2-furylketone] | 0% | 0% | 0% | 0% | 30% | 50% | – | – | – | – | – | – |
| CC(C)(C)N(CCC(=O)c1nccs1)Cc1ccccc1 [Example 256, 2-(N-benzyl-t-butyl)aminoethyl-2-thiazolylketone] | 0% | 0% | 10% | 50% | 90% | 80% | – | – | – | – | – | – |
| Cc1nc(C)c(C(=O)CCN(CCO)C(C)C)s1 [Example 257, 2-(N-isopropyl-2-hydroxyethyl)aminoethyl-2,4-dimethyl-5-thiazolylketone] | 0% | 0% | 0% | 0% | 0% | 20% | – | – | – | – | – | – |
| CN(CCC(=O)c1nccs1)Cc1ccccc1 [Example 258, 2-(N-benzylmethyl)aminoethyl-2-thiazolylketone] | 0% | 0% | 0% | 20% | 0% | 20% | – | – | – | – | – | – |
| CN(CCO)CCC(=O)c1cccnc1 [Example 259, 2-(N-2-hydroxyethylmethyl)aminoethyl-3-pyridylketone] | 0% | 0% | 0% | 0% | 0% | 20% | – | – | – | – | – | – |
| CCc1nccnc1C(=O)CCN(CCO)CCO [Example 260, 2-(N-bis-hydroxyethyl)aminoethyl-3-ethyl-2-pyrazylketone] | 0% | 0% | 0% | 20% | 0% | 20% | – | – | – | – | – | – |
| CN(CCO)CCC(=O)c1ccncc1 [Example 262, 2-(N-2-hydroxyethylmethyl)aminoethyl-4-pyridylketone] | 0% | 0% | 0% | 0% | 0% | 70% | – | – | – | – | – | – |
| Cc1csc(C(=O)CCN(Cc2ccccc2)C(C)C)n1 [Example 263, 2-(N-benzylisopropyl)aminoethyl-4-methyl-2-thiazolylketone] | 0% | 0% | 30% | 0% | 0% | 70% | – | – | – | – | – | – |
| CCCCN(CCO)CCC(=O)c1nc(C)cs1 [Example 264, 2-(N-butyl-2-hydroxyethyl)aminoethyl-4-methyl-2-thiazolylketone] | 0% | 0% | 10% | 0% | 0% | 70% | – | – | – | – | – | – |
| Cc1csc(C(=O)CCN(C)Cc2ccccc2)n1 [Example 265, 2-(N-benzylmethyl)aminoethyl-4-methyl-2-thiazolylketone] | 10% | 10% | 10% | 0% | 0% | 70% | – | – | – | – | – | – |
| CC(C)N(CCC(=O)c1ccc(Cl)s1)Cc1ccccc1 [Example 266, 2-(N-benzylisopropyl)aminoethyl-5-chloro-2-thiophenylketone] | 0% | 20% | 40% | 0% | 0% | 70% | – | – | – | – | – | – |
| CC(C)N(CCO)CCC(=O)c1ccc(Cl)s1 [Example 267, 2-(N-2-hydroxyethylisopropyl)aminoethyl-5-chloro-2-thiophenylketone] | 0% | 0% | 0% | 0% | 0% | 70% | – | – | – | – | – | – |
| O=C(CCN(CCO)Cc1ccccc1)c1ccc(Cl)s1 [Example 268, 2-(N-benzyl-2-hydroxyethyl)aminoethyl-5-chloro-2-thiophenylketone] | 10% | 0% | 10% | 0% | 0% | 70% | – | – | – | – | – | – |
| O=C(CCNCCCO)c1cnccn1 [Example 270, 2-(N-hydroxypropyl)aminoethyl-2-pyrazylketone] | – | 10% | 30% | 20% | 0% | 10% | – | – | – | – | – | – |
| O=C(CCNCc1ccccc1)c1ccncc1 [Example 271, 2-(N-benzyl)aminoethyl-4-pyridylketone] | – | 0% | 10% | 10% | 0% | 40% | – | – | – | – | – | – |
| O=C(CCNC(c1ccccc1)C(O)c1ccccc1)c1ccco1 (centres unmarked) [Example 272, 2-(N-1,2-diphenyl-2-hydroxyethyl)aminoethyl-2-furylketone] | – | 20% | 40% | 40% | 20% | 20% | – | – | – | – | – | – |
| O=C(CCNCCN(CCO)CCC(=O)c1cnccn1)c1cnccn1 [Example 273, N,N-bis(2-pyrazoylethyl)-N-hydroxyethylethylenediamine] | – | 0% | 10% | 40% | 30% | 20% | – | – | – | – | – | – |
